# Reference: patent US6875451B2, “Compositions and methods for the treatment of primary and metastatic neoplastic diseases using arsenic compounds” (PolaRx Biopharmaceuticals Inc., priority 1997, dated 2005)
# Assays:
# Format in all cases: cell-based
# IGROV1 = assay: SRB growth assay, 2 days exposure, ovarian cancer
# Method: (§1) Arsenic trioxide (1 mg/ml, 10 mg/ampoule, manufactured by Taylor Pharmaceuticals, Decatur, Ill.) was tested at five concentrations each at 10-fold dilutions, i.e., 10^−5, 10^−6, 10^−7, 10^−8 and 10^−9 μg/ml.
# (§2) The in vitro tests were performed by incubating the test cells in the presence of the indicated concentration of arsenic trioxide under standard culture conditions for a designated period of time, which is followed by a sulforhodamine B (SRB) protein assay to estimate cell viability or growth. The cell lines are organized into subpanels according to the origin of the cell lines, e.g., leukemia, breast cancer, etc. A description of the cell lines and method of testing is described in Monk et al. (1997, Anticancer Drug Des. 12:533-41) and Weinstein et al., (1997, Science 275:343-9), which are incorporated herein in their entirety.
# (§3) The measurement of an effect is expressed in Percentage Growth (PG). The measured effect of the compound on a cell line is calculated according to one or the other of the following two expressions: If (Mean ODtest−Mean ODzero)≧0. then PG=100×(Mean ODtest−Mean ODzero)/(Mean ODctrl−Mean ODzero) If (Mean ODtest−Mean ODzero)<0. then PG=100×(Mean ODtest−Mean ODzero)/(Mean ODzero where: • Mean ODzero=the average of optical density measurements of SRB-derived color just before exposure of cells to the test compounds; • Mean ODtest=the average of optical density measurements of SRB-derived color after exposure of cells to the test compound for a designated period of time; and • Mean ODctrl=the average of optical density measurements of SRB-derived color after with no exposure of cells to the test compound for a designated period of time
# (§4) The first two columns describe the subpanel (e.g., leukemia) and cell line (e.g., CCRF-CEM) involved. The next two columns list the Mean ODzero and Mean ODctrl; the next five columns list the Mean ODtest for each of five different concentrations. Each concentration is expressed as the log10 (molar or μg/ml). The next five columns list the calculated PGs for each concentration. The response parameters GI50, TGI and LC50 are interpolated values representing the concentrations at which the PG is +50, 0, and −50, respectively. Sometimes these response parameters cannot be obtained by interpolation. If, for instance, all of the PGs in a given row exceed +50, then none of the three parameters can be obtained by interpolation. In such a case, the value given for each response parameter is the highest concentration tested and is preceded by a “>” sign. This practice is extended similarly to the other possible situations where a response parameter cannot be obtained by interpolation.
# (§5) In the first set, the cells from 56 different cancer cell lines were exposed to five concentrations of arsenic trioxide continuously for two days prior to performing the SRB assay. In the second set, the cells from 50 different cell lines (a subset of the first 56 cell lines, plus the renal cancer cell line 786-0) were exposed continuously for six days prior to the SRB assay.
# OVCAR-3 = assay: SRB growth assay, 2 days exposure, ovarian cancer
# Method: as §1, §2, §3, §4, §5
# OVCAR-5 = assay: SRB growth assay, 2 days exposure, ovarian cancer
# Method: as §1, §2, §3, §4, §5
# OVCAR-8 = assay: SRB growth assay, 2 days exposure, ovarian cancer
# Method: as §1, §2, §3, §4, §5
# SK-OV-3 = assay: SRB growth assay, 2 days exposure, ovarian cancer
# Method: as §1, §2, §3, §4, §5
# COLO 205 = assay: SRB growth assay, 6 days exposure, colon cancer; conditions: COLO 205, 6 days
# Method: as §1, §2, §3, §4, §5
# HCT-116 = assay: SRB growth assay, 6 days exposure, colon cancer; conditions: HCT-116, 6 days
# Method: as §1, §2, §3, §4, §5
# HCT-15 = assay: SRB growth assay, 6 days exposure, colon cancer; conditions: HCT-15, 6 days
# Method: as §1, §2, §3, §4, §5
# KM12 = assay: SRB growth assay, 6 days exposure, colon cancer; conditions: KM12, 6 days
# Method: as §1, §2, §3, §4, §5
# DU-145 = assay: SRB growth assay, 6 days exposure, prostate cancer; conditions: DU-145, 6 days
# Method: as §1, §2, §3, §4, §5
# [1] = read-out: LC50 (the source's name)
substance,measurement,setting,value
arsenic trioxide,TGI,IGROV1,>0.0126 ng/mL
same,Percent Growth,IGROV1; log10 conc −4.9,18%
same,Percent Growth,IGROV1; log10 conc −5.9,102%
same,Percent Growth,IGROV1; log10 conc −6.9,105%
same,Percent Growth,IGROV1; log10 conc −7.9,118%
same,Percent Growth,IGROV1; log10 conc −8.9,111%
same,TGI,OVCAR-3,>0.0126 ng/mL
same,Percent Growth,OVCAR-3; log10 conc −4.9,12%
same,Percent Growth,OVCAR-3; log10 conc −5.9,90%
same,Percent Growth,OVCAR-3; log10 conc −6.9,97%
same,Percent Growth,OVCAR-3; log10 conc −7.9,99%
same,Percent Growth,OVCAR-3; log10 conc −8.9,101%
same,TGI,OVCAR-5,>0.0126 ng/mL
same,Percent Growth,OVCAR-5; log10 conc −4.9,34%
same,Percent Growth,OVCAR-5; log10 conc −5.9,97%
same,Percent Growth,OVCAR-5; log10 conc −6.9,93%
same,Percent Growth,OVCAR-5; log10 conc −7.9,103%
same,Percent Growth,OVCAR-5; log10 conc −8.9,105%
same,TGI,OVCAR-8,>0.0126 ng/mL
same,Percent Growth,OVCAR-8; log10 conc −4.9,28%
same,Percent Growth,OVCAR-8; log10 conc −5.9,80%
same,Percent Growth,OVCAR-8; log10 conc −6.9,84%
same,Percent Growth,OVCAR-8; log10 conc −7.9,92%
same,Percent Growth,OVCAR-8; log10 conc −8.9,92%
same,TGI,SK-OV-3,>0.0126 ng/mL
same,Percent Growth,SK-OV-3; log10 conc −4.9,40%
same,Percent Growth,SK-OV-3; log10 conc −5.9,100%
same,Percent Growth,SK-OV-3; log10 conc −6.9,98%
same,Percent Growth,SK-OV-3; log10 conc −7.9,97%
same,Percent Growth,SK-OV-3; log10 conc −8.9,94%
same,TGI,COLO 205,>1.26E−05
same,Mean Optical Densities,COLO 205; Log 10 Concentration −4.9,0.024
same,Percent Growth,COLO 205; Log 10 Concentration −4.9,0%
same,Mean Optical Densities,COLO 205; Log 10 Concentration −5.9,1.404
same,Percent Growth,COLO 205; Log 10 Concentration −5.9,59%
same,Mean Optical Densities,COLO 205; Log 10 Concentration −6.9,2.283
same,Percent Growth,COLO 205; Log 10 Concentration −6.9,97%
same,Mean Optical Densities,COLO 205; Log 10 Concentration −7.9,2.026
same,Percent Growth,COLO 205; Log 10 Concentration −7.9,86%
same,Mean Optical Densities,COLO 205; Log 10 Concentration −8.9,2.308
same,Percent Growth,COLO 205; Log 10 Concentration −8.9,98%
same,CC50,COLO 205; [1],> 12.6 µM
same,TGI,HCT-116,>1.26E−05
same,Mean Optical Densities,HCT-116; Log 10 Concentration −4.9,1.931
same,Percent Growth,HCT-116; Log 10 Concentration −4.9,56%
same,Mean Optical Densities,HCT-116; Log 10 Concentration −5.9,3.284
same,Percent Growth,HCT-116; Log 10 Concentration −5.9,96%
same,Mean Optical Densities,HCT-116; Log 10 Concentration −6.9,3.381
same,Percent Growth,HCT-116; Log 10 Concentration −6.9,99%
same,Mean Optical Densities,HCT-116; Log 10 Concentration −7.9,3.289
same,Percent Growth,HCT-116; Log 10 Concentration −7.9,96%
same,Mean Optical Densities,HCT-116; Log 10 Concentration −8.9,3.395
same,Percent Growth,HCT-116; Log 10 Concentration −8.9,99%
same,CC50,HCT-116; [1],> 12.6 µM
same,TGI,HCT-15,>1.26E−05
same,Mean Optical Densities,HCT-15; Log 10 Concentration −4.9,0.404
same,Percent Growth,HCT-15; Log 10 Concentration −4.9,10%
same,Mean Optical Densities,HCT-15; Log 10 Concentration −5.9,3.432
same,Percent Growth,HCT-15; Log 10 Concentration −5.9,89%
same,Mean Optical Densities,HCT-15; Log 10 Concentration −6.9,4.227
same,Percent Growth,HCT-15; Log 10 Concentration −6.9,110%
same,Mean Optical Densities,HCT-15; Log 10 Concentration −7.9,3.921
same,Percent Growth,HCT-15; Log 10 Concentration −7.9,102%
same,Mean Optical Densities,HCT-15; Log 10 Concentration −8.9,3.965
same,Percent Growth,HCT-15; Log 10 Concentration −8.9,103%
same,CC50,HCT-15; [1],> 12.6 µM
same,TGI,KM12,>1.26E−05
same,Mean Optical Densities,KM12; Log 10 Concentration −4.9,0.017
same,Percent Growth,KM12; Log 10 Concentration −4.9,1%
same,Mean Optical Densities,KM12; Log 10 Concentration −5.9,0.036
same,Percent Growth,KM12; Log 10 Concentration −5.9,4%
same,Mean Optical Densities,KM12; Log 10 Concentration −6.9,0.507
same,Percent Growth,KM12; Log 10 Concentration −6.9,83%
same,Mean Optical Densities,KM12; Log 10 Concentration −7.9,0.533
same,Percent Growth,KM12; Log 10 Concentration −7.9,87%
same,Mean Optical Densities,KM12; Log 10 Concentration −8.9,0.487
same,Percent Growth,KM12; Log 10 Concentration −8.9,80%
same,CC50,KM12; [1],> 12.6 µM
same,TGI,DU-145,6.32E−06
same,Mean Optical Densities,DU-145; Log 10 Concentration −4.9,0.055
same,Percent Growth,DU-145; Log 10 Concentration −4.9,−43%
same,Mean Optical Densities,DU-145; Log 10 Concentration −5.9,2.153
same,Percent Growth,DU-145; Log 10 Concentration −5.9,100%
same,Mean Optical Densities,DU-145; Log 10 Concentration −6.9,1.935
same,Percent Growth,DU-145; Log 10 Concentration −6.9,89%
same,Mean Optical Densities,DU-145; Log 10 Concentration −7.9,1.954
same,Percent Growth,DU-145; Log 10 Concentration −7.9,90%
same,Mean Optical Densities,DU-145; Log 10 Concentration −8.9,2.147
same,Percent Growth,DU-145; Log 10 Concentration −8.9,99%
same,CC50,DU-145; [1],> 12.6 µM
